# Assay results: patent US10894777B2, “TG2 inhibitor piperazine compounds and uses thereof” (UNIVERSITY OF OTTAWA, priority 2016, dated 2021)
# Key:
# [1] = tested on: SCC-13 cells; test: Trypan Blue viability assay, SCC-13 spheroids; format: cell-based, human; settings: 0-20 μM, 0-72 hours
# Protocol: Trypan Blue viability assay. SCC-13 cells were grown as spheroids in six well cluster dishes in spheroid medium for 8 days and then treated with 0-20 μM NC9. At 0, 24, 48, and 72 hours post-NC9 treatment, spheroids were counted, and all cells in the well were collected to prepare a single cell suspension in Hank's Balanced Salt Solution. Trypan Blue solution (0.5 mL, 0.4%) was added to a 15 mL conical tube with 0.3 mL of Hank's Balanced Salt Solution and 0.2 ml of cell suspension. After 10 min, 8 μL of the mixture was transferred to a hemocytometer to count viable and total cell number.
# [2] = tested on: EGFR; test: Immunoblot of EGFR and phospho-EGFR in GBM cells; format: cell-based, human
# Protocol: In (A) it is shown that shorter treatments with NC9 had no effect on EGF-stimulated EGFR phosphorylation in U87 cells. U87 cells were treated with 10 μM NC9 or DMSO control for 24 h followed by 10 min of 100 ng/mL EGF treatment. At the end of the treatments, cells were lysed and 20 μg of lysates from U87 cells were blotted for phospho-EGFR, EGFR and tubulin. […] Cell medium was changed every 24 h and fresh inhibitors or DMSO was added to the medium. At the end of the treatment, cells were lysed and 20 μg of lysates from cells U87 and T98G were blotted for phospho-EGFR, EGFR and actin.
# Immunoblotting. Cells were rinsed in ice-cold phosphate-buffered saline (PBS) and collected in lysis buffer, containing 0.5% NP-40, 150 mM NaCl, 10 mM Tris-Cl (pH 7.4), 1 mM EGTA, 1 mM EDTA, 1 mM phenylmethylsulphonyl fluoride, 1 μM okadaic acid, and 10 μg/mL each of aprotinin, leupeptin, and pepstatin. Samples were sonicated on ice and centrifuged at 16,000 g for 10 min. Protein concentrations of supernatants were then determined by the bicinchoninic acid assay with bovine serum albumin (BSA) as a standard and samples were diluted to a final concentration of 1 mg/mL with 2× reducing stop buffer (0.25 M Tris-HCl, pH 6.8, 5 mM EDTA, 5 mM EGTA, 25 mM dithiothreitol, 2% SDS, 10% glycerol, and bromophenol blue as the tracking dye). […]
# [3] = molecular target: T1, TG3a (Homo sapiens, UniProt Q08188); test: Fluorescence isopeptidase activity assay (A101 probe), TG3a; format: biochemical
# T1 construct: purchased Zedira
# Protocol: Selectivity of certain irreversible inhibitors over other members of the transglutaminase family was assessed. […] Inhibitors were tested using a continuous colorimetric assay (Leblanc, A. et al., Biochemistry (2001), 40 (28): 8335-8342) for hTG1 and hTG6 and a commercially available continuous fluorescent assay that utilizes a peptidic FRET quenched substrate (Oertel, K. et al., Anal. Biochem. (2007), 367 (2): 152-158; Király, R. et al., Amino Acids (2016), 48 (1): 31-40) for the other transglutaminases, FXIIIa and hTG3. The rate constant of enzyme inactivation (kobs) for a specific concentration of inhibitor was obtained using Kitz and Wilson conditions (Kitz, R. et al., J. Biol. Chem. (1962), 237: 3245-49). Inhibitor concentrations were adjusted to account for competition with substrates in each enzymatic reaction.
# Fluorescence isopeptidase activity assay. The isopeptidase activity of pre-activated TG3a and FXIIIa (purchased from Zedira) was measured via a fluorescence-based assay (Király, R. et al., Amino Acids (2016), 48 (1): 31-40) using the commercially available peptidic FRET quenched probe A101 from Zedira. Briefly, the final concentration in the reaction mixture contained 50 mM Tris (pH 7.0), 10 mM CaCl2, 100 mM NaCl, 2.8 mM TCEP, 50 μM A101 and 14 mM H-Gly-OMe. The reaction was monitored at 25° C. using a BioTek Synergy 4 plate reader (Ex/Em: 318/413 nm).
# T1 sequence (Q08188 2-467 limits assumed): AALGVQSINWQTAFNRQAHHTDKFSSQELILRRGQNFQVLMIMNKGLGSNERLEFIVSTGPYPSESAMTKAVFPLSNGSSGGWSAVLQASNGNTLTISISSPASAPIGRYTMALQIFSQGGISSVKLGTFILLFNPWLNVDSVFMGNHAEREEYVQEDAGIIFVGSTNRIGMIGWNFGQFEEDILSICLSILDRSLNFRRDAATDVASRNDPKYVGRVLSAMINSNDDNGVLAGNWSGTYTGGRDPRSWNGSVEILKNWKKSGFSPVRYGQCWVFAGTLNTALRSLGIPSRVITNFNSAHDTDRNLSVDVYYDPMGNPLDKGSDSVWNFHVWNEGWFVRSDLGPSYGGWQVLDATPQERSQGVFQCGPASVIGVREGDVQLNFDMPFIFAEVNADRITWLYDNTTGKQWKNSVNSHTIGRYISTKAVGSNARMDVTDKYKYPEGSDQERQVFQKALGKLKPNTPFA
# T1 sequence (Q08188 468-693 partner limits assumed): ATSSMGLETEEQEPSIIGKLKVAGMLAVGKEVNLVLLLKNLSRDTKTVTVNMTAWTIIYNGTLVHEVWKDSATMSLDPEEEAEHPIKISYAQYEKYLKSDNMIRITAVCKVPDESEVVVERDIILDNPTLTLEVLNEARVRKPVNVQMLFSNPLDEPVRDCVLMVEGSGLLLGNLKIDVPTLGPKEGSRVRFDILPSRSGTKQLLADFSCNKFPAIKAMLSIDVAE
compound,measurement,setting,value
C=CC(=O)NCCCC[C@H](NC(=O)OCc1ccccc1)C(=O)NCCOCCOCCNS(=O)(=O)c1cccc2c(N(C)C)cccc12 [NC9],viable cell number (trypan blue exclusion),[1],concentration-dependent reduction in viable cell number
same,"phospho-EGFR and EGFR levels, longer treatment","[2]; U87 and T98G cells, 10 μM, 48-72 h","decrease phospho-EGFR and EGFR levels in U87 cells, but not T98G cells"
same,"EGFR or phospho-EGFR levels, shorter treatment","[2]; U87 cells, 10 μM 24 h, then 100 ng/mL EGF 10 min",did not result in a decrease
same,"kobs (10^−3 min^−1), TG3a","[3]; Table 9, Kitz and Wilson conditions",1.01 ± 0.09 10^−3 min^−1
same,selectivity towards hTG2 over hTG3a,[3]; from kobs,about 390 fold
